# Like-named read-outs stand apart in the source and are kept apart here.
# Assays:
# [1] = target: T1, E. coli GluRS (Escherichia coli, UniProt P04805); assay: Adenylation of α- and β3-amino acids, pyrophosphate exchange assay
# Method: (§1) Adenylation of α- and β-Amino Acids Catalyzed by E. coli PheRS, GlyRS, MetRS, and GluRS. […] Briefly, assay mixtures (50 μL) assembled at 25° C. contained the requisite α- or β^3-amino acid substrate (between 5 μM and 5 mM) in 100 mM HEPES (pH 7.0) containing 100 mM KCl, 15 mM MgCl2, 2 mM ATP, 0.5 mM NaPPi, and 50 μCi [^32P]-NaPPi). Reactions were initiated upon addition of enzyme (10 nM MetRS, 10 nM PheRS, or 50 nM GlyRS; 100 nM GluRS for reactions with α-Glu or 1.13 μM GluRS for reactions with β^3-Glu), incubated for various times (10 sec to 10 min), and halted by adding a 5 μL reaction aliquot to 100 μL quenching solution (10% charcoal, 0.5% HCl). 50 μL of 200 mM NaPPi in 1.5 N HCl was then added to each quenched reaction to decrease nonspecific binding of pyrophosphate to the charcoal. Each quenched reaction was then filtered through Whatman filter paper (number 3), previously washed with washing solution (200 mM NaPPi in 1 N HCl) using a 96-well BIO-DOT® apparatus (BioRad). Each well of the apparatus was then washed four times with 200 μL aliquots of washing solution (by pipetting washing solution up and down at least 10 times per wash) to minimize nonspecific binding of pyrophosphate to charcoal. Each experimental well was paired with an analogous control well (no-enzyme control) that lacked enzyme; a single membrane contained time points for both α- and β^3-amino acid substrates and all no-enzyme controls. The membrane was allowed to dry and was protected with a sheet of Microseal B adhesive seals (Biorad) prior to exposure to a BAS Storage Phosphor screen. Screens were imaged on a Typhoon 9500FLA biomolecule imager and the signal intensity of each dot was quantified using ImageJ to determine the relative amount of [^32P]-ATP formed as a function of time (Ctime). Each raw value were corrected by subtracting the intensity of the dot corresponding to the appropriate no-enzyme control (Cblank) and the resulting corrected values of Ccorr (representing the relative amounts of ^32P-ATP formed) were plotted as a function of time to determine values of relative ^32P-ATP formed per minute. Those values were divided by the concentration of enzyme used, and the data was plotted as relative specific activity (^32P-ATP formed min^−1×μM^−1 enzyme) and fitted using Prism by performing nonlinear regression using the least squares method and Equation 1 to obtain RSA (relative specific activity) and KM values (Equation 1 and Table 2).
# (§2) In Equation 1, v is the apparent relative specific activity (relative ^32P-ATP formed per minute) obtained at each substrate concentration divided by the enzyme concentration, RSA is the relative specific activity, S is the concentration of substrate, and KM is the Michaelis-Menten constant.
# [2] = target: T1, E. coli GluRS; assay: Aminoacylation of 32P-tRNA with α- and β3-amino acids; type: biochemical; design: made in house; host or cells: E. coli BL21(DE3)
# [3] = target: T1, E. coli GluRS; assay: Deacylation assay of [32P]-aminoacyl-tRNA; type: biochemical; design: made in house; host or cells: E. coli BL21(DE3); settings: deacylation of aminoacyl-tRNA, GluRS 5.0 μM, 25° C.
# Method: (§3) Deacylation assays. Large scale (200 μL) aminoacylation reactions were initiated using the conditions described above (iv). The reactions were allowed to proceed for 1 h at 37° C., after which each reaction mixture was phenol/chloroform extracted. In each case, the aminoacylated tRNA product was ethanol precipitated, and the buffer was exchanged using a micro Bio-Spin 6 column (BioRad) following the procedure specified by the manufacturer and 100 mM HEPES (pH 8.0) containing 100 mM KCl. The precise extent of aminoacylation was calculated using the procedure described above; the 2 μM concentration corresponds to total aminoacylated tRNA. Assays were performed at 25° C. in a 50 μL reaction with 2 μM [^32P]-aminoacyl-tRNA in 100 mM HEPES (pH 7.0) containing 100 mM KCl and 15 mM MgCl2.
# [4] = target: T2, E. coli MetRS (Escherichia coli, UniProt P00959); settings: for kcat (min^−1) or RSA (^32P-ATP formed min^−1 enzyme μM^−1): 25° C., pH 7.0
# Method: as §1, §2
# [5] = target: T2, E. coli MetRS
# Method: Aminoacylation of α- and β^3-amino acids. All tRNAs were prepared for aminoacylation by heating ^32P-tRNA (in 100 mM HEPES (pH 7.0)) to 95° C. for 3 min, and adding sufficient aminoacylation buffer (100 mM HEPES (pH 7.0), 100 mM KCl, 15 mM MgCl2) to ensure [^32P-tRNA]=4 μM. This tRNA mixture was allowed to cool at RT for 30 min. […] Equal volumes of the tRNA and amino acid mix were combined, and enzyme was added to initiate the reaction. The final concentration of tRNA after mixing was 2 μM. Reactions were quenched at various time points by mixing 1 μL of the reaction mixture with 4 μL of P1 (Sigma) or S1 (Invitrogen) nuclease solution (0.5 U/μL final prepared from a 10 U/μL stock solution in 10 mM NaOAc (pH 5.0). PEI cellulose TLC plates were run as previously described (Ledoux, et al., Methods, 44:74 (2008)), exposed to a BAS Storage Phosphor Screen, and imaged using a Typhoon FLA9500 biomolecule imager. The intensity of each band was quantified using ImageJ. The sum of the intensities of the bands corresponding to [^32P]-AMP (IAMP) and aminoacyl-[^32P]-AMP (IAA) was set equal to 2 μM, and the concentration of aminoacylated-tRNA at each time point and each enzyme concentration (μM product formed, x) calculated from the equation x=[(IAA×2 μM)/(IAA+IAMP)]. The increase in aminoacyl-^32P-AMP over time was divided by the amount of enzyme used, plotted as a function of substrate concentration and fitted to a hyperbolic equation to obtain kcat and KM values, using Equation 1 and Prism as described for the adenylation reactions. For all aminoacylation reactions, kcat has units of reciprocal time (min^−1).
# [6] = target: T2, E. coli MetRS; settings: for krev (apparent rate of deacylation): deacylation of aminoacyl-tRNA, MetRS 500 nM, 25° C.
# Method: as §3
# [7] = target: T3, E. coli PheRS (Escherichia coli, UniProt P08312); assay: Deacylation assay of [32P]-aminoacyl-tRNA; type: biochemical; design: made in house; host or cells: E. coli BL21(DE3); settings: deacylation of aminoacyl-tRNA, PheRS 500 nM, 25° C.
# Method: as §3
# [8] = target: T3, E. coli PheRS; assay: Aminoacylation of 32P-tRNA with α- and β3-amino acids; type: biochemical; design: made in house; host or cells: E. coli BL21(DE3)
# [9] = target: T3, E. coli PheRS; assay: Adenylation of α- and β3-amino acids, pyrophosphate exchange assay
# Method: as §1, §2
# T3 sequence (P08312 whole entry): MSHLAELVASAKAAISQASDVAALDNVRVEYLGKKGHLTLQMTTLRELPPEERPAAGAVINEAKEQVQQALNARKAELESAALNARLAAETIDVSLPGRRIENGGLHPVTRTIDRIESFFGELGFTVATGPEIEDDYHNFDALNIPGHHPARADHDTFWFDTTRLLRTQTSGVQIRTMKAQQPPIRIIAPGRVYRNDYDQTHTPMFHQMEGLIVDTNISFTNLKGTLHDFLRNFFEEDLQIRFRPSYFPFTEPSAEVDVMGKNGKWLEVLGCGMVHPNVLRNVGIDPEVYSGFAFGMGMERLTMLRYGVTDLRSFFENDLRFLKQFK
# T3 sequence (P07395 whole entry partner): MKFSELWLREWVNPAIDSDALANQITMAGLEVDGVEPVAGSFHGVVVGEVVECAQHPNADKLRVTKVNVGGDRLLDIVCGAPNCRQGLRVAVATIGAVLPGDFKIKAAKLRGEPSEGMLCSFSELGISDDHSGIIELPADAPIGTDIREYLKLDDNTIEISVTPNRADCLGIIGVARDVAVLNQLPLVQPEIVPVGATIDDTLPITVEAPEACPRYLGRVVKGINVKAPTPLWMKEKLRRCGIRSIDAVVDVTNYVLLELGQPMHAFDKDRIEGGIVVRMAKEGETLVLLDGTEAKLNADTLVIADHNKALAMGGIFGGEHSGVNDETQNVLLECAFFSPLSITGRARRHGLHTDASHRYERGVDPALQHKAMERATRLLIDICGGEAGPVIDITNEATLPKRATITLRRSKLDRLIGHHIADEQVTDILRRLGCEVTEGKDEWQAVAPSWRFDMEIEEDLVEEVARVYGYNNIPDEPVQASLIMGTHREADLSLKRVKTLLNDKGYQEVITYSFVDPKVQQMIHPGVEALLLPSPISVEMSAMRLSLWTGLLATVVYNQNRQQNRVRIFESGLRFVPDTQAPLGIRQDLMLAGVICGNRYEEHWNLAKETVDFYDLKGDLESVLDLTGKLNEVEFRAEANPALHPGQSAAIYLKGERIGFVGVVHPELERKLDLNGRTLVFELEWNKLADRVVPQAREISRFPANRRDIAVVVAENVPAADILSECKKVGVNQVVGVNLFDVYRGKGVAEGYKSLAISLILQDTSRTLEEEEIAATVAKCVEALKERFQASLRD
# T1 sequence (P04805 whole entry): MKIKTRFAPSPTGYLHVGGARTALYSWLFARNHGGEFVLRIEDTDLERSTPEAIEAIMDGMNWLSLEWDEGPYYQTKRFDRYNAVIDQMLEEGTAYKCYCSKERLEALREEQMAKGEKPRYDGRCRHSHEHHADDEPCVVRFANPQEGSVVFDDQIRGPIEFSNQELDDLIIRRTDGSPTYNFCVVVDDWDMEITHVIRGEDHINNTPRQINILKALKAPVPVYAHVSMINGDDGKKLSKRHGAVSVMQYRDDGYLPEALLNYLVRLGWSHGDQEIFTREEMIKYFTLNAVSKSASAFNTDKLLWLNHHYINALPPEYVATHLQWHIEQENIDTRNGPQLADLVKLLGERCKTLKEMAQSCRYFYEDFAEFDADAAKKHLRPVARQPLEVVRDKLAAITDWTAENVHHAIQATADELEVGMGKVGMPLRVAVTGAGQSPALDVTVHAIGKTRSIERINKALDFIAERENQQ
# T2 sequence (P00959 whole entry): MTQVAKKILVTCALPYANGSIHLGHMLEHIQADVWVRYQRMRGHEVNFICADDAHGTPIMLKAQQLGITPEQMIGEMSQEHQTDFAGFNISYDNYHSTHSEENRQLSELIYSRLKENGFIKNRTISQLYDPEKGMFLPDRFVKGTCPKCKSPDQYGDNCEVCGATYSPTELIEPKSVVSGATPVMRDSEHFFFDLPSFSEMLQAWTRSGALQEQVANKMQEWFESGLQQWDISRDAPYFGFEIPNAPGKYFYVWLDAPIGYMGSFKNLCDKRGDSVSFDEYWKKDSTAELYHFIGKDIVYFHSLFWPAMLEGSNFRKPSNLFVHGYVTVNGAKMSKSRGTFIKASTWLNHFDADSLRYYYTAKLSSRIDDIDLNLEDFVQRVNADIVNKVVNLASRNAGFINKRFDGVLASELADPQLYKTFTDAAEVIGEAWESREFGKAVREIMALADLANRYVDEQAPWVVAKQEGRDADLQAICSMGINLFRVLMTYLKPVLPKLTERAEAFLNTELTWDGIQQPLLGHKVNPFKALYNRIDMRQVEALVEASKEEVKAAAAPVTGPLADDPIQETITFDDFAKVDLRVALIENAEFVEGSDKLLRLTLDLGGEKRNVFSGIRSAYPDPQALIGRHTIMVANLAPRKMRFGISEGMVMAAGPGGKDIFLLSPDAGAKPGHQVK
structure (smiles),measurement,setting,value
"NC(CCC(=O)O)CC(=O)O (stereo not drawn) [β-Glu, β^3-glutamic acid]",Km,[1],215 ± 110 µM
same,kcat (min^−1) or RSA (^32P-ATP formed min^−1 enzyme μM^−1),"[1]; RSA, 25° C., pH 7.0",42.7 ± 5.8 ^32P-ATP formed min^−1 enzyme μM^−1
same,Km,[2],375 ± 271 µM
same,kcat,[2]; 2 μM tRNA,1.25e-05 ± 1.5e-06 s⁻¹
same,krev (apparent rate of deacylation),[3],0.43 ± 0.15 min⁻¹
"CSCC[C@H](N)C(=O)O [α-Met, Methionine]",Ratio (α-/β-) of KM,[4]; adenylation,0.70 ± 0.5
same,Ratio (α-/β-) of RSA,[4]; adenylation,1.4 ± 0.2
same,Ratio (α-/β-) of kcat/KM,[4]; adenylation,1.98 ± 1.5
same,preference for α-Met over β^3-Met,[4]; adenylation phase,2 fold
same,kcat (min^−1) or RSA (^32P-ATP formed min^−1 enzyme μM^−1),[4]; adenylation,430 ± 38 ^32P-ATP formed min^−1 enzyme μM^−1
same,Ratio (α/β) of KM,[5]; aminoacylation,0.40 ± 0.18
same,Ratio (α/β) of kcat,[5]; aminoacylation,6.8 ± 1.3
same,Ratio (α/β) of kcat/KM,[5]; aminoacylation,17.0 ± 8.5
same,preference (kcat/KM) for α-Met over β^3-Met,[5]; complete aminoacylation reaction,19 fold
same,krev (apparent rate of deacylation),[6],2.1 ± 1.7 min⁻¹
same,Ratio (α/β) of krev,"[6]; deacylation, MetRS",0.52 ± 0.49
"CSCCC(N)CC(=O)O (stereo not drawn) [β-Met, β^3-methionine]",Km,[4]; adenylation,33.4 ± 22 µM
same,kcat (min^−1) or RSA (^32P-ATP formed min^−1 enzyme μM^−1),[4]; adenylation,310 ± 47 ^32P-ATP formed min^−1 enzyme μM^−1
same,Km,[5]; aminoacylation,609 ± 243 µM
same,kcat,"[5]; aminoacylation, 2 μM tRNA",0.0035 ± 0.0005 s⁻¹
same,krev (apparent rate of deacylation),[6],4.0 ± 1.8 min⁻¹
"NC(CC(=O)O)Cc1ccccc1 (stereo not drawn) [β-Phe, β^3-phenylalanine]",krev (apparent rate of deacylation),[7],0.32 ± 0.03 min⁻¹
same,Km,[8],119 ± 51.5 µM
same,kcat,[8]; 2 μM tRNA,0.004 ± 0.0005 s⁻¹
same,Km,[9],300 ± 137 µM
same,kcat (min^−1) or RSA (^32P-ATP formed min^−1 enzyme μM^−1),"[9]; RSA, 25° C., pH 7.0",41.6 ± 6.8 ^32P-ATP formed min^−1 enzyme μM^−1
